“And” between values parts separate entries of the source, which are not always exact repeats. Equal values may be shown once. Numbers after ± are expanded uncertainties.
Conditions: Fluid (supercritical or subcritical phases), Buoyancy - hydrostatic balance with magnetic suspension - one sinker

[Ar] [argon]
Conditions | mass density [kg/m3]
298.2 K, 30957 kPa | 499.118 ± 0.25
298.22 K, 26965 kPa | 444.81 ± 0.22
298.22 K, 28963 kPa | 472.591 ± 0.24
298.23 K, 10975 kPa | 185.811 ± 0.11
298.23 K, 12977 kPa | 220.515 ± 0.12
298.23 K, 14975 kPa | 254.862 ± 0.14
298.23 K, 18968 kPa | 321.888 ± 0.17
298.23 K, 20970 kPa | 354.268 ± 0.18
298.23 K, 22969 kPa | 385.599 ± 0.2
298.23 K, 24967 kPa | 415.802 ± 0.21
298.24 K, 16973 kPa | 288.723 ± 0.15
348.19 K, 30960 kPa | 409.077 ± 0.2
348.21 K, 10976 kPa | 153.363 ± 0.077
348.21 K, 19007 kPa | 262.654 ± 0.14
348.21 K, 28963 kPa | 386.293 ± 0.19
348.22 K, 18971 kPa | 262.184 ± 0.14
348.22 K, 28964 kPa | 386.289 ± 0.19
348.23 K, 17005 kPa | 236 ± 0.42
348.24 K, 15014 kPa | 209.051 ± 0.29
348.24 K, 16969 kPa | 235.508 ± 0.42
348.24 K, 26966 kPa | 362.782 ± 1.3
348.24 K, 30961 kPa | 409.019 ± 0.2
348.25 K, 12974 kPa | 181.049 ± 0.34
348.25 K, 32887 kPa | 430.274 ± 0.21
348.26 K, 21009 kPa | 288.719 ± 0.17
348.26 K, 24967 kPa | 338.568 ± 0.87
348.27 K, 14970 kPa | 208.427 ± 0.29
348.27 K, 20969 kPa | 288.199 ± 0.17
348.27 K, 22970 kPa | 313.733 ± 0.19
348.27 K, 26989 kPa | 363.019 ± 1.3
348.28 K, 11019 kPa | 153.917 ± 0.078
348.28 K, 13012 kPa | 181.556 ± 0.34
348.28 K, 25000 kPa | 338.949 ± 0.87
348.29 K, 23010 kPa | 314.199 ± 0.19
397.91 K, 12975 kPa | 155.101 ± 0.085
397.98 K, 14981 kPa | 178.323 ± 0.096
398.1 K, 24969 kPa | 288.472 ± 0.14
398.17 K, 16979 kPa | 201.05 ± 0.11
398.19 K, 30985 kPa | 349.444 ± 0.17
398.2 K, 28999 kPa | 329.764 ± 0.17
398.21 K, 32960 kPa | 368.494 ± 0.18
398.23 K, 26971 kPa | 309.171 ± 0.17
398.23 K, 30962 kPa | 349.179 ± 0.17
398.24 K, 11017 kPa | 132.022 ± 0.076
398.24 K, 19010 kPa | 223.818 ± 0.11
398.25 K, 21010 kPa | 245.897 ± 0.12
398.26 K, 13011 kPa | 155.367 ± 0.085
398.26 K, 23005 kPa | 267.5 ± 0.13
398.28 K, 28964 kPa | 329.33 ± 0.16
398.3 K, 17005 kPa | 201.261 ± 0.11
398.31 K, 15013 kPa | 178.513 ± 0.097
398.35 K, 27004 kPa | 309.394 ± 0.15
398.47 K, 25004 kPa | 288.536 ± 0.14
398.61 K, 18975 kPa | 223.208 ± 0.12
398.87 K, 20975 kPa | 245.092 ± 0.13
398.92 K, 22970 kPa | 266.619 ± 0.14

N#N [nitrogen]
Conditions | mass density
298.12 K, 32109 kPa | 311.953 ± 0.15 kg/m3
298.22 K, 30959 kPa | 303.674 ± 0.15 kg/m3
298.23 K, 10976 kPa | 123.118 ± 0.07 kg/m3
298.23 K, 12976 kPa | 144.452 ± 0.079 kg/m3
298.23 K, 16971 kPa | 185.161 ± 0.096 kg/m3
298.23 K, 19010 kPa | 204.785 ± 0.1 kg/m3
298.23 K, 20970 kPa | 222.928 ± 0.11 kg/m3
298.23 K, 22971 kPa | 240.653 ± 0.12 kg/m3
298.23 K, 26968 kPa | 273.675 ± 0.14 kg/m3
298.23 K, 26969 kPa | 273.679 ± 0.14 kg/m3
298.23 K, 28965 kPa | 289.039 ± 0.14 kg/m3
298.23 K, 28966 kPa | 289.035 ± 0.14 kg/m3
298.24 K, 11019 kPa | 123.569 ± 0.07 kg/m3
298.24 K, 13017 kPa | 144.868 ± 0.079 kg/m3
298.24 K, 14976 kPa | 165.17 ± 0.088 kg/m3
298.24 K, 17014 kPa | 185.557 ± 0.096 kg/m3
298.24 K, 18975 kPa | 204.467 ± 0.1 kg/m3
298.24 K, 21004 kPa | 223.219 ± 0.11 kg/m3
298.24 K, 22992 kPa | 240.817 ± 0.12 kg/m3
298.24 K, 24970 kPa | 257.55 ± 0.13 kg/m3
298.24 K, 24971 kPa | 257.546 ± 0.13 kg/m3
298.25 K, 15014 kPa | 165.544 ± 0.088 kg/m3
298.33 K, 30945 kPa | 303.445 ± 0.15 kg/m3
348.21 K, 28966 kPa | 244.176 ± 0.12 kg/m3
348.23 K, 17010 kPa | 154.974 ± 0.11 kg/m3
348.23 K, 32959 kPa | 269.893 ± 0.13 kg/m3
348.24 K, 18974 kPa | 170.907 ± 0.093 kg/m3
348.24 K, 26968 kPa | 230.548 ± 0.12 kg/m3
348.24 K, 28967 kPa | 244.162 ± 0.12 kg/m3
348.25 K, 10981 kPa | 103.086 ± 0.18 kg/m3
348.25 K, 13016 kPa | 121.065 ± 0.07 kg/m3
348.25 K, 22970 kPa | 201.759 ± 0.32 kg/m3
348.25 K, 24970 kPa | 216.421 ± 0.13 kg/m3
348.25 K, 26979 kPa | 230.612 ± 0.12 kg/m3
348.25 K, 30963 kPa | 257.253 ± 0.13 kg/m3 and 257.258 ± 0.13 kg/m3
348.26 K, 15015 kPa | 138.272 ± 0.074 kg/m3
348.26 K, 16972 kPa | 154.648 ± 0.11 kg/m3
348.26 K, 20971 kPa | 186.577 ± 0.31 kg/m3
348.27 K, 11019 kPa | 103.42 ± 0.18 kg/m3
348.27 K, 21013 kPa | 186.886 ± 0.31 kg/m3
348.28 K, 12976 kPa | 120.712 ± 0.069 kg/m3
348.28 K, 14976 kPa | 137.928 ± 0.073 kg/m3
348.28 K, 19011 kPa | 171.174 ± 0.093 kg/m3
348.28 K, 23006 kPa | 202.007 ± 0.32 kg/m3
348.29 K, 25001 kPa | 216.612 ± 0.13 kg/m3
398.17 K, 21012 kPa | 161.802 ± 0.082 kg/m3
398.19 K, 23005 kPa | 175.071 ± 0.088 kg/m3
398.21 K, 27000 kPa | 200.503 ± 0.1 kg/m3
398.22 K, 19011 kPa | 148.062 ± 0.076 kg/m3
398.22 K, 28993 kPa | 212.616 ± 0.1 kg/m3
398.22 K, 32961 kPa | 235.672 ± 0.12 kg/m3
398.23 K, 25002 kPa | 187.957 ± 0.094 kg/m3
398.24 K, 20972 kPa | 161.499 ± 0.082 kg/m3
398.24 K, 26967 kPa | 200.287 ± 0.1 kg/m3
398.24 K, 28966 kPa | 212.445 ± 0.1 kg/m3
398.25 K, 12976 kPa | 104.354 ± 0.057 kg/m3
398.25 K, 22969 kPa | 174.806 ± 0.088 kg/m3
398.26 K, 24969 kPa | 187.737 ± 0.094 kg/m3
398.26 K, 30962 kPa | 224.219 ± 0.11 kg/m3
398.27 K, 30977 kPa | 224.298 ± 0.11 kg/m3
398.28 K, 14977 kPa | 119.222 ± 0.065 kg/m3
398.28 K, 18975 kPa | 147.786 ± 0.076 kg/m3
398.29 K, 16973 kPa | 133.67 ± 0.07 kg/m3
398.3 K, 13014 kPa | 104.623 ± 0.057 kg/m3
398.32 K, 11005 kPa | 89.328 ± 0.051 kg/m3
398.36 K, 17012 kPa | 133.928 ± 0.07 kg/m3
398.39 K, 15006 kPa | 119.391 ± 0.065 kg/m3
